We go through one substance from US12227747B2, “Composition comprising aptamer as active ingredient for treatment and prevention of degenerative brain disease” (Nexmos Co., LTD, priority 2018, dated 2025).

A short description of series [1]: Fluorescence-based microplate assay (OPDA) of ascorbic acid oxidation. The class given is physicochemical. The source says: (§1) FIGS. 4-5 is a diagram showing a fluorescence-based microplate assay that inhibits ascorbic acid oxidation, and FIG. 4 is an experimental result using OPDA, a substance that becomes fluorescent by binding to DHA. […] FIG. 5 is a comparison of the antioxidant activity of remaining ascorbic acid using DCPIP after AptaminC3T31+ascorbic acid and ascorbic acid were left for 8 weeks under the same conditions. AptaminC3T31+ascorbic acid maintained 50% antioxidant activity even after 8 weeks,
The oxidation of ascorbic acid was measured in reverse with detecting the oxidized product dehydroascorbic acid (DHA) with modifying a method described in Vislisel et al. (Vislisel, J. M. Schafer, F. O. and Buettner, G. R. (2007) Analytical biochemistry, 365, 31-39).
Briefly, aptamers were incubated with AA (10.3 μM) at 4× concentration for 30 minutes at room temperature before addition of 25 μM H2O2 (Sigma). Before the addition of OPDA dye (Sigma), the oxidizing agent sample was added and incubated at room temperature for 10 minutes. Immediately after addition of the dye (954.6 μM) sample, and read at excitation 345 nm; emission: 425 nm with a SpectraMax® plate reader (Molecular Devices) for 45 minutes at intervals of 60 seconds until the control converges. […] All fluorescence assays were performed in black 384-well plates (greiner bio-one). […]

A short description of series [2]: Storage of vitamin C with aptamer at room temperature for 8 weeks, reducing activity by DCPIP. In kind it is physicochemical. As to conditions: FIG. 5.
Description: as §1
The aptamin C of the present invention was maintained at room temperature for 8 weeks and the reducing activity of ascorbic acid was measured using DCPIP (2,6-Dichlorophenolindophenol).

A short description of series [3]: ITC (Isothermal Titration calorimetry) of the aptamer binding to ascorbic acid. The settings on record: FIG. 7, read-out: binding affinity between the aptamer and ascorbic acid.

Consider “AptaminC3T31: DNA aptamer binding vitamin C (ascorbic acid); SEQ ID NO: 1, GTGGAGGCGGTGGCCAGTCTCGCGGTGGCGGC (DNA GTGGAGGCGGTGGCCAGTCTCGCGGTGGCGGC; listed as DNA, chemistry not given here)”, for which the “oxidation of ascorbic acid (DHA detected with OPDA fluorescence)” value in series [1] (ascorbic acid treated with hydrogen peroxide, FIG. 4) is “oxidation of ascorbic acid is prevented”. The “ability to protect AA from oxidation” value in series [1] (screen of top 20 candidate aptamers from SELEX) is on record as “best effect”. For the same substance, the “increase of shelf life compared to ascorbic acid alone” value in series [2] was no less than 4 times. The Kd in series [3] stood at 900 nM.
